Key:
Format in all cases: biochemical
SIK2 = SIK2 (Homo sapiens, UniProt Q9H0K1); assay: Enzymatic activity assay SIK2, RapidFire mass spectrometry (phosphorylation of CHK-peptide); conditions: RapidFire MS, inhibition of SIK2; read-out: SIK2 RF IC50
Procedure, shortened: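 SIK2 (0.5 nM) in pH 7.0 HEPES buffer with 10 mM Mg acetate phosphorylates CHK-peptide (10 μM solution) with 100 μM ATP solution, 45 min ambient, then formic acid quench.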

SIK1 = SIK1 (Homo sapiens, UniProt P57059); assay: Enzymatic activity assay SIK1, RapidFire mass spectrometry (phosphorylation of CHK-peptide); conditions: RapidFire MS, inhibition of SIK1; read-out: SIK1 RF IC50
SIK1, sequence (P57059 whole entry): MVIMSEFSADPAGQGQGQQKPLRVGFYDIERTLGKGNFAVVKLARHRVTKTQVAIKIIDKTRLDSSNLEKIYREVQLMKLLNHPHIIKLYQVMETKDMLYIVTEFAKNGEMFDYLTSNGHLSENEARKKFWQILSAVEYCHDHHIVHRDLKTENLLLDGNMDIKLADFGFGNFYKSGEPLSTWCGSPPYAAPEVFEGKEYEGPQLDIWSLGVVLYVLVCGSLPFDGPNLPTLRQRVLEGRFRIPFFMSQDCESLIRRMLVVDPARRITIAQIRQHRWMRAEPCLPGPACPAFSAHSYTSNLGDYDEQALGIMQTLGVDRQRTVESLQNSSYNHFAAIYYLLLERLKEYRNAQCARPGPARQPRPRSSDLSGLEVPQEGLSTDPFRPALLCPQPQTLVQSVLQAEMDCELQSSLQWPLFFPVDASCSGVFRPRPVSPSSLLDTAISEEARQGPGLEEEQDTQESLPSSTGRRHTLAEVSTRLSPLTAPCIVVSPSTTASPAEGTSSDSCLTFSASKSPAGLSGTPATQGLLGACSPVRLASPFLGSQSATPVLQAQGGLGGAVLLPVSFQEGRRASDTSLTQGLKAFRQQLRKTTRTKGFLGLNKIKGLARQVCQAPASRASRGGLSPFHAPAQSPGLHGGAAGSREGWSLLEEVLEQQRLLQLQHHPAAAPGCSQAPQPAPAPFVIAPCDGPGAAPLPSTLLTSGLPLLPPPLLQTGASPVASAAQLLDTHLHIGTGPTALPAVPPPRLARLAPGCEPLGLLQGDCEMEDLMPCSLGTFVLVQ
Procedure, shortened: (§1)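 Compounds (12-point, 3-fold, generally 30 μM to 170 pM) were pre-incubated 30 min at ambient temperature with SIK1 (5 nM), SIK2 (0.5 nM) or SIK3 (1.5 nM) in HEPES pH 7.0/magnesium acetate buffer. CHK-peptide (10 μM solution) and ATP (100 μM solution) were then added for 45 min before formic acid quench.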

SIK3 = SIK3 (Homo sapiens, UniProt Q9Y2K2); assay: Enzymatic activity assay SIK3, RapidFire mass spectrometry (phosphorylation of CHK-peptide); conditions: RapidFire MS, inhibition of SIK3; read-out: SIK3 RF IC50
SIK3, sequence (Q9Y2K2 whole entry): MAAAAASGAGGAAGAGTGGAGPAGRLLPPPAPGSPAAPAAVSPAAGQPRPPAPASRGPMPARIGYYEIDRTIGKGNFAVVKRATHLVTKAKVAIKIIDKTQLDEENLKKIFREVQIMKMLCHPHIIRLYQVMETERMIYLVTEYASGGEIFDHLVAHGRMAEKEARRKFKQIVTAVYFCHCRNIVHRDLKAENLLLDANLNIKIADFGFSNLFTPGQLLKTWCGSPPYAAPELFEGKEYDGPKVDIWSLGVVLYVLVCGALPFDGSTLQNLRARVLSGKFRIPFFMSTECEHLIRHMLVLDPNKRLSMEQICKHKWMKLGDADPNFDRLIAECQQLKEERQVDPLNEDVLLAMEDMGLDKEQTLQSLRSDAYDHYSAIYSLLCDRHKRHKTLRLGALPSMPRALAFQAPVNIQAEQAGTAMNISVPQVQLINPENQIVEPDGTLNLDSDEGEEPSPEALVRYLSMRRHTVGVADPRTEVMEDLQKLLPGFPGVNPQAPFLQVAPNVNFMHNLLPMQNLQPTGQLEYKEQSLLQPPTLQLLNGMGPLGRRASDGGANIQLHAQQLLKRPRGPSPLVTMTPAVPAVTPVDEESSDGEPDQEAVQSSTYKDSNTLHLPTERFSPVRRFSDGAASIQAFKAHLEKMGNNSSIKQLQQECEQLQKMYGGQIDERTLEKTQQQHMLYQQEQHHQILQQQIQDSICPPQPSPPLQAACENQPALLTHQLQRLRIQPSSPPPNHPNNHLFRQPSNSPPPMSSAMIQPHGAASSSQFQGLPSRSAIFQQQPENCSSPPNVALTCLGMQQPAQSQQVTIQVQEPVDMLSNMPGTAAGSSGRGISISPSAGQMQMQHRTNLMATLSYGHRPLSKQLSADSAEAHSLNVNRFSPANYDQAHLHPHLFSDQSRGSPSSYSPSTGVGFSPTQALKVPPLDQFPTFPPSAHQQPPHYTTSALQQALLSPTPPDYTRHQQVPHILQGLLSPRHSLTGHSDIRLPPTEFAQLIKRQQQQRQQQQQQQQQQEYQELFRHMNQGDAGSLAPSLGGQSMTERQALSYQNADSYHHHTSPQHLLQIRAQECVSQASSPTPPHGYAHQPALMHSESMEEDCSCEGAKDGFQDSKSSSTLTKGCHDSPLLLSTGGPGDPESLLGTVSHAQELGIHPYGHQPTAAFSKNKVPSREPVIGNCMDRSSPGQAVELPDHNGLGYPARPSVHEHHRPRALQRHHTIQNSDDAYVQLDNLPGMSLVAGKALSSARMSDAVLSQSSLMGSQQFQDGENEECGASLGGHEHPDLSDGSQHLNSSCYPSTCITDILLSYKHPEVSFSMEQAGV
Procedure, shortened: as §1

SIK2, sequence (Q9H0K1 whole entry): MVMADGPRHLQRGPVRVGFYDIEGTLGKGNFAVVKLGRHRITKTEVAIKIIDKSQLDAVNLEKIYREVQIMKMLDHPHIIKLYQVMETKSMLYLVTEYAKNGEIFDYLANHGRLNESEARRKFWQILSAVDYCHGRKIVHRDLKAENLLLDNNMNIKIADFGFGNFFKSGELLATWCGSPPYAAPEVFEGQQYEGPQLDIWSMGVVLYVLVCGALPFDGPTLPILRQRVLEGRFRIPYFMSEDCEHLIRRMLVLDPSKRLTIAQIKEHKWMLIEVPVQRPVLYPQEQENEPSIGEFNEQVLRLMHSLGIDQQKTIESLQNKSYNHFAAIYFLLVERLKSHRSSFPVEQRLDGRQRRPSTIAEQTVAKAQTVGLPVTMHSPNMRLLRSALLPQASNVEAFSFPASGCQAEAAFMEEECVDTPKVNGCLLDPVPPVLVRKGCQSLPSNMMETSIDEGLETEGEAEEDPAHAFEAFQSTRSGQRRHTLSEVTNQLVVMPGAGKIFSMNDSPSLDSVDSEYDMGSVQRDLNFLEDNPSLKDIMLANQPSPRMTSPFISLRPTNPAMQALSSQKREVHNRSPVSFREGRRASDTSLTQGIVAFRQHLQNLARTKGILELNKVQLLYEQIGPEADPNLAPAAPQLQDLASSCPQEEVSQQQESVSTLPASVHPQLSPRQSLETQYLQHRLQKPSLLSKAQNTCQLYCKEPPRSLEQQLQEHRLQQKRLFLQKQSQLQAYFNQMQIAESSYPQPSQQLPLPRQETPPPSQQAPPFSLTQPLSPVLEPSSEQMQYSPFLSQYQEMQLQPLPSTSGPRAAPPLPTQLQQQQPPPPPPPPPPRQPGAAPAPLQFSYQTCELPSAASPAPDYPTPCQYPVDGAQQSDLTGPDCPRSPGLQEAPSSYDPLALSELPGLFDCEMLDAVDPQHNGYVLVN

Row | SMILES | IC50 (SIK2) | IC50 (SIK1) | IC50 (SIK3)
1 | Cc1ccc(Nc2ccc3ncn(-c4ccc(C(C)O)c(-n5nc(C(F)(F)F)c6c5CCNC6)n4)c3c2)nn1 (stereo not drawn) [Example 98, 1-[6-[6-[(6-Methylpyridazin-3-yl)amino]benzimidazol-1-yl]-2-[3-(trifluoromethyl)-4,5,6,7-tetrahydropyrazolo[4,3-c]pyridin-1-yl]-3-pyridyl]ethanol] | 4.2 nM | 5 nM | 13.4 nM
2 | Cc1ccc(Oc2ccc3ncn(-c4ccc(C(C)O)c(-n5nc(C#N)cc5C)n4)c3c2)nn1 (stereo not drawn) [Example 74, 1-[3-(1-Hydroxyethyl)-6-[6-(6-methylpyridazin-3-yl)oxybenzimidazol-1-yl]-2-pyridyl]-5-methyl-pyrazole-3-carbonitrile] | 36.6 nM | 45 nM | 190 nM
3 | Cc1cc(C#N)nn1-c1nc(-n2cnc3ccc(CN4CCCS4(=O)=O)cc32)ccc1C(C)O (stereo not drawn) [Example 202, 1-[6-[6-[(1,1-Dioxo-1,2-thiazolidin-2-yl)methyl]benzimidazol-1-yl]-3-(1-hydroxyethyl)-2-pyridyl]-5-methyl-pyrazole-3-carbonitrile] | 500 nM | 1020 nM | 205 nM
4 | COc1cc2ncn(-c3ccc([C@H](C)O)c(-c4ccc(F)cc4OC)n3)c2cc1OC [Example 21, (S)-1-(6-(5,6-Dimethoxy-1H-benzo[d]imidazol-1-yl)-2-(4-fluoro-2-methoxyphenyl)pyridin-3-yl)ethan-1-ol] | 135 nM | 192 nM | 543 nM
5 | COc1cc2ncn(-c3ccc(CO)c(N4CCOCC4)n3)c2cc1OC [Example 26, (6-(5,6-Dimethoxy-1H-benzo[d]imidazol-1-yl)-2-morpholinopyridin-3-yl)methanol] | 699 nM | 806 nM | 1440 nM
6 | Cc1ncc(Nc2cc3ncn(-c4ccc([C@H](C)O)c(-n5nc(C#N)cc5C)n4)c3cc2F)cc1F [Example 391, 1-[6-[6-fluoro-5-[(5-fluoro-6-methyl-3-pyridyl)amino]benzimidazol-1-yl]-3-[(1S)-1-hydroxyethyl]-2-pyridyl]-5-methyl-pyrazole-3-carbonitrile] | 4.5 nM | 23 nM | 2 nM
7 | Cc1cc(C#N)nn1-c1nc(-n2cnc3cc(N4CCN(C)CC4)ccc32)ccc1C(C)O (stereo not drawn) [Example 65, 1-[3-(1-Hydroxyethyl)-6-[5-(4-methylpiperazin-1-yl)benzimidazol-1-yl]-2-pyridyl]-5-methyl-pyrazole-3-carbonitrile] | 63.7 nM | 652 nM | 81.9 nM
8 | Cc1ccc(Nc2ccc3c(c2)ncn3-c2ccc(C(C)O)c(-c3cncnc3NC3CC3)n2)nn1 (stereo not drawn) [Example 163, 1-[2-[4-(Cyclopropylamino)pyrimidin-5-yl]-6-[5-[(6-methylpyridazin-3-yl)amino]benzimidazol-1-yl]-3-pyridyl]ethanol] | 964 nM | > 30000 nM | 181 nM
9 | COc1ccnnc1Nc1ccc2c(c1)ncn2-c1ccc(C(C)O)c(-n2nc(C#N)cc2C)n1 (stereo not drawn) [Example 160, 1-[3-(1-Hydroxyethyl)-6-[5-[(4-methoxypyridazin-3-yl)amino]benzimidazol-1-yl]-2-pyridyl]-5-methyl-pyrazole-3-carbonitrile] | 3.2 nM | 223 nM | 1.2 nM
10 | Cc1ccc(Nc2ccc3c(c2)ncn3-c2ccc(C(C)O)c(N3CC[C@H]4NCC[C@@H]43)n2)nn1 (mixture of isomers) [Example 127, 1-[6-[5-[(6-Methylpyridazin-3-yl)amino]benzimidazol-1-yl]-2-[rac-trans-2,3,3a,5,6,6a-hexahydro-1H-pyrrolo[3,2-b]pyrrol-4-yl]-3-pyridyl]ethanol] | 13.7 nM | 457 nM | 15.5 nM
11 | Cc1ccc(Nc2ccc3c(c2)ncn3-c2ccc(C(C)O)c(-n3nc(C)cc3C#N)n2)nn1 (stereo not drawn) [Example 104, 2-[3-(1-Hydroxyethyl)-6-[5-[(6-methylpyridazin-3-yl)amino]benzimidazol-1-yl]-2-pyridyl]-5-methyl-pyrazole-3-carbonitrile] | 10.4 nM | 616 nM | 2.6 nM
12 | Cc1cc(C#N)nn1-c1nc(-n2cnc3cc(Nc4ccn(C)c(=O)n4)ccc32)ccc1C(C)O (stereo not drawn) [Example 146, 1-[3-(1-Hydroxyethyl)-6-[5-[(2-keto-1-methyl-pyrimidin-4-yl)amino]benzimidazol-1-yl]-2-pyridyl]-5-methyl-pyrazole-3-carbonitrile] | 34.6 nM | 227 nM | 7.8 nM
13 | Cc1ccc(Nc2cc3c(cc2F)ncn3-c2ccc(C(C)O)c(-n3nc(Cl)cc3C)n2)nn1 (stereo not drawn) [Example 354, 1-[2-(3-chloro-5-methyl-pyrazol-1-yl)-6-[5-fluoro-6-[(6-methylpyridazin-3-yl)amino]benzimidazol-1-yl]-3-pyridyl]ethanol] | 78.6 nM | 225 nM | 75.9 nM

Stronger by IC50 (SIK2), values ahead:

Row | IC50 (SIK2) | IC50 (SIK1) | IC50 (SIK3) | SMILES
14 | 1 nM | 136 nM | 1.4 nM | Cc1ccc(Nc2ccc3c(c2)ncn3-c2ccc(C(C)O)c(-c3cn(CC4CC4)nc3C)n2)nn1 (stereo not drawn) [Example 266, 1-[2-[1-(Cyclopropylmethyl)-3-methyl-pyrazol-4-yl]-6-[5-[(6-methylpyridazin-3-yl)amino]benzimidazol-1-yl]-3-pyridyl]ethanol; formic acid]
15 | 2 nM | 521 nM | 1.8 nM | Cc1ccc(Nc2ccc3c(c2)ncn3-c2ccc(C(C)O)c(-c3cn(C4CC4(F)F)nc3C)n2)nn1 (stereo not drawn) [Example 277, 1-[2-[1-(2,2-difluorocyclopropyl)-3-methyl-pyrazol-4-yl]-6-[5-[(6-methylpyridazin-3-yl)amino]benzimidazol-1-yl]-3-pyridyl]ethanol]
16 | 0.6 nM | 46 nM | 1.2 nM | Cc1ccc(Nc2ccc3c(c2)ncn3-c2ccc(C(C)O)c(-c3cn(CC(C)(F)F)nc3C)n2)nn1 (stereo not drawn) [Example 281, 1-[2-[1-(2,2-difluoropropyl)-3-methyl-pyrazol-4-yl]-6-[5-[(6-methylpyridazin-3-yl)amino]benzimidazol-1-yl]-3-pyridyl]ethanol]
17 | 0.3 nM | 43 nM | 0.2 nM | Cc1ccc(Nc2ccc3c(c2)ncn3-c2ccc(C(C)O)c(-c3cnn(CC(F)(F)F)c3C)n2)nn1 (stereo not drawn) [Example 240, 1-[6-[5-[(6-Methylpyridazin-3-yl)amino]benzimidazol-1-yl]-2-[5-methyl-1-(2,2,2-trifluoroethyl)pyrazol-4-yl]-3-pyridyl]ethanol; formic acid]
18 | 0.3 nM | 27 nM | 0.4 nM | Cc1ccc(Nc2ccc3c(c2)ncn3-c2ccc(C(C)O)c(-n3nc(C#N)c(C)c3C)n2)nn1 (stereo not drawn) [Example 309, 1-[3-(1-hydroxyethyl)-6-[5-[(6-methylpyridazin-3-yl)amino]benzimidazol-1-yl]-2-pyridyl]-4,5-dimethyl-pyrazole-3-carbonitrile]
19 | 1.7 nM | 155 nM | 2.1 nM | Cc1ccc(Nc2ccc3c(c2)ncn3-c2ccc(C(C)O)c(-n3nc(C#N)c4c3C(F)(F)CNC4)n2)nn1 (stereo not drawn) [Example 305, 7,7-difluoro-1-[3-(1-hydroxyethyl)-6-[5-[(6-methylpyridazin-3-yl)amino]benzimidazol-1-yl]-2-pyridyl]-5,6-dihydro-4~{H}-pyrazolo[4,3-c]pyridine-3-carbonitrile]
20 | 1.6 nM | 270 nM | 1.7 nM | COCCn1cc(-c2nc(-n3cnc4cc(Nc5ccc(C)nn5)ccc43)ccc2C(C)O)c(C)n1 (stereo not drawn) [Example 265, 1-[2-[1-(2-Methoxyethyl)-3-methyl-pyrazol-4-yl]-6-[5-[(6-methylpyridazin-3-yl)amino]benzimidazol-1-yl]-3-pyridyl]ethanol; formic acid]
21 | 0.6 nM | 2 nM | 7.8 nM | COc1cc2c(cc1Nc1cnc(C)nc1)ncn2-c1ccc([C@H](C)O)c(-n2nc(OC(F)F)cc2C)n1 [Example 400, (1S)-1-[2-[3-(difluoromethoxy)-5-methyl-pyrazol-1-yl]-6-[6-methoxy-5-[(2-methylpyrimidin-5-yl)amino]benzimidazol-1-yl]-3-pyridyl]ethanol]
22 | 2.1 nM | 216 nM | 1 nM | Cc1ccc(Nc2ccc3c(c2)ncn3-c2ccc(C(C)O)c(-n3cc(C)c(C#N)n3)n2)nn1 (stereo not drawn) [Example 170, 1-[3-(1-Hydroxyethyl)-6-[5-[(6-methylpyridazin-3-yl)amino]benzimidazol-1-yl]-2-pyridyl]-4-methyl-pyrazole-3-carbonitrile; formic acid]
23 | 1.6 nM | 3 nM | 3.4 nM | COc1nn(C)cc1-c1ccc2c(c1)ncn2-c1ccc(C(C)O)c(-n2nc(C#N)cc2C)n1 (stereo not drawn) [Example 334, 1-[3-(1-hydroxyethyl)-6-[5-(3-methoxy-1-methyl-pyrazol-4-yl)benzimidazol-1-yl]-2-pyridyl]-5-methyl-pyrazole-3-carbonitrile]
24 | 0.7 nM | 409 nM | 1.1 nM | Cc1ccc(Nc2cc3ncn(-c4ccc(C(C)O)c(-c5cn(CC(F)(F)F)nc5C)n4)c3cc2F)nn1 (stereo not drawn) [Example 302, 1-[6-[6-fluoro-5-[(6-methylpyridazin-3-yl)amino]benzimidazol-1-yl]-2-[3-methyl-1-(2,2,2-trifluoroethyl)pyrazol-4-yl]-3-pyridyl]ethanol]
25 | 0.3 nM | 88 nM | 0.4 nM | Cc1ccc(Nc2cc3ncn(-c4ccc([C@H](C)O)c(-n5nc(OC(F)F)cc5C)n4)c3cc2F)nn1 [Example 374, (1S)-1-[2-[3-(difluoromethoxy)-5-methyl-pyrazol-1-yl]-6-[6-fluoro-5-[(6-methylpyridazin-3-yl)amino]benzimidazol-1-yl]-3-pyridyl]ethanol]

— patent US20240383875A1, “Benzimidazole Pyridine Derivatives” (Hoffmann-La Roche Inc., priority 2022, published 2024)
